Measurements from PubChem BioAssay AID540365 (The Scripps Research Institute Molecular Screening Center, 2011).
Activity calls are given as the source filed them. How the calls were made is not given here.

Biological target: Neuropeptides B/W receptor type 1 (Homo sapiens) (UniProt P48145)
Experiment: NPBW1 receptor blockers in cells – cell-based, fluorescence, dose response, set 3, late-stage follow-up (AID 540365)
Conditions: GPR7-expressing cells, fluorescence antagonist read-out

| SMILES | IC50 (run 1) | IC50 (run 2) | IC50 (run 3) |
| --- | --- | --- | --- |
| CCOc1ccc(Oc2c(Cl)c(Br)nn(Cc3cccc4ccccc34)c2=O)cc1 | 0.177 µM | 0.237 µM | – |
| CCOc1ccc(Oc2c(S(C)=O)cnn(Cc3cccc4ccccc34)c2=O)cc1 (centres undefined) | 2.22 µM | 2.13 µM | 2.09 µM |
| COc1ccc(Oc2c(C#N)cnn(Cc3cccc4ccccc34)c2=O)cc1 | 1.31 µM | 1.69 µM | 2.49 µM |
| COc1ccc(Oc2c(Cl)cnn(Cc3cccc4cnccc34)c2=O)cc1 | 3.4 µM | 4.1 µM | 4.93 µM |
| CCOc1ccc(Oc2c(Cl)cnn(C3c4ccccc4-c4ccccc43)c2=O)cc1 | 0.48 µM | 0.168 µM | 0.207 µM |
| COc1ccc(Oc2c(Cl)c(C#N)nn(Cc3ccccc3C)c2=O)cc1 | 1.09 µM | 1.27 µM | 1.19 µM |
| COc1ccc(Oc2c(Cl)cnn(C(c3ccccc3)c3ccccc3)c2=O)cc1 | 0.58 µM | 0.497 µM | 0.481 µM |
| COc1ccc(Nc2c(Cl)cnn(Cc3cccc4ccccc34)c2=O)cc1 | inactive | 9.47 µM | > 20 µM (inactive) |
| COc1ccc(Oc2c(Cl)cnn(Cc3c(F)cccc3F)c2=O)cc1 | 0.843 µM | 0.726 µM | 0.719 µM |
| CCCOc1ccc(Oc2c(Cl)cnn(C3c4ccccc4-c4ccccc43)c2=O)cc1 | > 20 µM (inactive) | > 20 µM (inactive) | > 20 µM (inactive) |
| C=Cc1nn(Cc2ccccc2C)c(=O)c(Oc2ccc(OC)cc2)c1C=C | 0.418 µM | 0.808 µM | 0.818 µM |
| CCOC(=O)C(c1ccccc1)n1ncc(Cl)c(Oc2ccc(OC)cc2)c1=O (centres undefined) | 1.32 µM | 0.864 µM | 0.953 µM |
| CCCOc1ccc(Oc2c(Cl)cnn(Cc3cccc4ccccc34)c2=O)cc1 | 1.14 µM | 1.08 µM | 1.12 µM |
| COc1ccc(Oc2c(Br)cnn(Cc3cccc4ccccc34)c2=O)cc1 | 0.132 µM | 0.242 µM | 0.24 µM |
| COc1ccc(Oc2c(Cl)cnn(Cc3ccc4ccccc4c3)c2=O)cc1 | 1.48 µM | 1.95 µM | 2.02 µM |
| COc1ccc(Sc2c(Cl)cnn(Cc3cccc4ccccc34)c2=O)cc1 | 0.66 µM | 1.03 µM | – |
| CCOC(=O)C(c1cccc2ccccc12)n1ncc(Cl)c(Oc2ccc(OC)cc2)c1=O (centres undefined) | 0.451 µM | 0.597 µM | 1.31 µM |
